15 compounds from PubChem BioAssay (NCI) can be followed below.

Some test systems named below: CAKI-1 renal; MALME-3M melanoma; MCF7 breast; MDA-MB-435; NCI-H460 lung; OVCAR-8 ovarian; SNB-19 CNS; TK-10 renal; UO-31 renal; SR leukemia.
What all share (assay): DTP human tumour cell line panel, 48 h

The structures appear in SMILES notation. Several values for one entry are separate records, joined by “and”; a condition that tells them apart may be missing. Equal entries are not always repeated.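 Method: 48-hour compound exposure of cells in 96-well plates, five concentrations, linear interpolation of endpoints. GI50: concentration for 50% inhibition of growth. TGI is the concentration that stops growth completely.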

On to `Cc1cc(O)c(C(C)C)cc1N=Cc1ccccc1O`, for which the TGI (usually the concentration at which net growth stops) with CAKI-1 renal was 25.4 µM; in the assay on MALME-3M melanoma, 28.4 µM; in the assay with MCF7 breast it was 78.9 µM; in the assay with MDA-MB-435, 4.37 µM; with NCI-H460 lung it was 24.6 µM; with OVCAR-8 ovarian it was over 29.6 µM. Moreover, the figures for the TGI in the assay with SNB-19 CNS, with TK-10 renal and with UO-31 renal were 36.5 µM, 26.9 µM and 33.7 µM, respectively.

Turning to `O=[N+]([O-])c1cc(Cl)ccc1S(=O)(=O)N1CCCc2cc(Cl)ccc21`, the concentration for total growth inhibition (TGI) with CAKI-1 renal, with MALME-3M melanoma, in the assay with MCF7 breast, in the assay with MDA-MB-435, in the assay on NCI-H460 lung and with OVCAR-8 ovarian was over 100 µM each time. In addition, the TGI in the assay on SNB-19 CNS, in the assay on TK-10 renal and in the assay on UO-31 renal was over 100 µM in each case.

In the case of `CC(=O)N(CN1C(=O)CCC1C(=O)O)c1ccccc1Cl` (stereo not drawn), the TGI in the assay with CAKI-1 renal, in the assay with MALME-3M melanoma, in the assay with MCF7 breast, with MDA-MB-435, in the assay on NCI-H460 lung and in the assay with OVCAR-8 ovarian was over 100 µM each time. Moreover, the TGI in the assay on SNB-19 CNS, with TK-10 renal and with UO-31 renal was over 100 µM in each case.

As for `CN1B(c2ccccc2)N(C)C(=O)N(C)C1=O`, the TGI in the assay on CAKI-1 renal, with MALME-3M melanoma, in the assay with MCF7 breast, in the assay on MDA-MB-435, with NCI-H460 lung and in the assay on OVCAR-8 ovarian was over 100 µM throughout. Besides, the TGI with SNB-19 CNS, in the assay on TK-10 renal and with UO-31 renal was over 100 µM in each case.

In the case of `N#C/C(=C\c1ccccc1Br)C(=O)c1ccccc1`, the TGI is over 100 µM in the assay on CAKI-1 renal; over 100 µM in the assay with MALME-3M melanoma; over 100 µM in the assay with NCI-H460 lung; over 38.6 µM in the assay on OVCAR-8 ovarian; over 87.3 µM in the assay on SNB-19 CNS; over 83.8 µM in the assay on SR leukemia. The figures for the TGI in the assay on TK-10 renal and in the assay with UO-31 renal were over 100 µM and over 53.9 µM, respectively.

Regarding `CC1(C)c2ccccc2C(O)C12CCC(=O)CC2` (stereo not drawn), the total growth inhibition concentration (TGI) in the assay with MALME-3M melanoma, in the assay with MDA-MB-435, in the assay with NCI-H460 lung, with SNB-19 CNS, in the assay on SR leukemia and in the assay on TK-10 renal was over 100 µM in each case. Further, the TGI with UO-31 renal was over 100 µM.

For the compound `CCN(CC)CCNc1ccc2ncn3c4cc(=O)ccc4c(O)c1c23`, the TGI in the assay on CAKI-1 renal is 13.4 µM; in the assay on MALME-3M melanoma, 14.9 µM; in the assay with NCI-H460 lung, 9.61 µM; with OVCAR-8 ovarian it was 7.77 µM; in the assay with SNB-19 CNS it was 32 µM; in the assay on SR leukemia it was 9.75 µM. The TGI with TK-10 renal was determined as 47.1 µM; in the assay on UO-31 renal, 22 µM.

With `CC1CN=C(c2ccc(COc3ccc(C4=NCC(C)N4)cc3)cc2)N1` (stereo not drawn), the TGI in the assay with CAKI-1 renal, in the assay with MALME-3M melanoma, with MCF7 breast, in the assay with MDA-MB-435, in the assay with NCI-H460 lung and in the assay on OVCAR-8 ovarian was over 100 µM throughout. For the same compound, the TGI in the assay with SNB-19 CNS, in the assay on TK-10 renal and with UO-31 renal was over 100 µM throughout.

As for `CC1(C)C2CCC(N)(C2)C1O` (stereo not drawn), the TGI in the assay with CAKI-1 renal, in the assay with MCF7 breast, with MDA-MB-435, with NCI-H460 lung, in the assay with OVCAR-8 ovarian and with SNB-19 CNS was over 100 µM throughout. Also, the TGI in the assay on SR leukemia, in the assay with TK-10 renal and in the assay on UO-31 renal was over 100 µM in each case.

`CCCCCCCCCCSCC(CO)NC(=O)/C=C/c1c(C)[nH]c(=O)[nH]c1=O` (stereo not drawn): the GI50 (in general, the concentration at which growth is held to half of that of the control) in the assay on CAKI-1 renal was 1.01 µM and 3.68 µM. Further, the TGI with CAKI-1 renal is 8.25 µM and > 50 µM; in the assay on MALME-3M melanoma, 6.28 µM and 2.78 µM; with MCF7 breast, > 19.3 µM and 17.4 µM; in the assay with NCI-H460 lung, 18.2 µM and 49.5 µM; with OVCAR-8 ovarian it was 18.6 µM and 10.4 µM; in the assay on SNB-19 CNS, 13.7 µM and 12.4 µM. In the assay with UO-31 renal, the TGI was over 50 µM.

Consider `O=S(=O)(/N=C(\NO)Nc1ccc(Cl)cc1)c1ccc(-c2ccccn2)s1`, for which the TGI with CAKI-1 renal was 66 µM; in the assay with MALME-3M melanoma, 96.8 µM; in the assay with MDA-MB-435, over 100 µM; with NCI-H460 lung it was over 100 µM; in the assay with OVCAR-8 ovarian it was over 100 µM; with SNB-19 CNS it was over 100 µM. Moreover, the concentration for total growth inhibition (TGI) with SR leukemia, with TK-10 renal and in the assay on UO-31 renal was over 100 µM each time.

Consider `Cc1ccc2c(=O)c(-c3n[nH]c(=S)s3)c[nH]c2n1`, for which the TGI in the assay with CAKI-1 renal, in the assay with MALME-3M melanoma, in the assay on MCF7 breast, in the assay with MDA-MB-435, with NCI-H460 lung and in the assay on OVCAR-8 ovarian was over 100 µM each time. Besides, the concentration for total growth inhibition (TGI) with SNB-19 CNS, in the assay on TK-10 renal and with UO-31 renal was over 100 µM each time.

Regarding `O=C1C[C@H](c2ccc(O)c(O)c2)Oc2cc(O)cc(O)c21`, the TGI in the assay on CAKI-1 renal, with MALME-3M melanoma, in the assay with NCI-H460 lung, in the assay with OVCAR-8 ovarian, in the assay with SNB-19 CNS and in the assay with SR leukemia was over 100 µM throughout. Moreover, the TGI in the assay with TK-10 renal and with UO-31 renal was over 100 µM throughout.

`O=C(O)CC(O)(C(=O)O)C(O)C(=O)O` (stereo not drawn): the TGI with CAKI-1 renal, with MALME-3M melanoma, in the assay with MCF7 breast, in the assay on MDA-MB-435, in the assay on NCI-H460 lung and with OVCAR-8 ovarian was over 1000 µM throughout. Also, the TGI in the assay on SNB-19 CNS and in the assay on TK-10 renal was over 1000 µM throughout.

Consider `NCCCC[C@H](N)C(=O)Nc1ccc(-c2nc3ccccc3s2)cc1Cl`, for which the TGI in the assay on CAKI-1 renal is 19.2 µM; in the assay on MALME-3M melanoma it was 28.3 µM; in the assay with MCF7 breast, 9.01 µM; in the assay on MDA-MB-435, 9.58 µM; in the assay with NCI-H460 lung, 13.7 µM; with OVCAR-8 ovarian, over 43.9 µM. The TGI in the assay on SNB-19 CNS is 32.9 µM; in the assay on TK-10 renal it was 26.2 µM; with UO-31 renal, 18.3 µM.
